In ChEMBL document CHEMBL4706489, “Hydrogen sulfide releasing oridonin derivatives induce apoptosis through extrinsic and intrinsic pathways” (Eur J Med Chem, 2020):

Assays:
B16 = test: Antiproliferative activity against mouse B16 cells assessed as reduction in cell viability after 72 hrs by MTT assay; details: B16, 72 h
MCF7 = test: Antiproliferative activity against human MCF7 cells assessed as reduction in cell viability after 72 hrs by MTT assay; details: MCF7, 72 h
HepG2 = test: Antiproliferative activity against human HepG2 cells assessed as reduction in cell viability after 72 hrs by MTT assay; details: HepG2, 72 h
L02 = test: Cytotoxicity against human L02 cells assessed as cell viability after 72 hrs by MTT assay; details: L02, 72 h
HCT-116 = test: Antiproliferative activity against human HCT-116 cells assessed as reduction in cell viability after 72 hrs by MTT assay; details: HCT-116, 72 h
[1] = Cytotoxicity against human PBMC cells assessed as cell viability after 72 hrs by MTT assay
K562 = test: Antiproliferative activity against human K562 cells assessed as reduction in cell viability after 72 hrs by MTT assay; details: K562, 72 h
[2] = Prodrug conversion in THF/PBS buffer assessed as H2S release concentration at 0.1 mM in presence of TCEP after 20 mins by methylene blue staining based UV-Vis spectrophotometric method; format: ADME; details: 100 µM

Row | SMILES | IC50 (B16) | IC50 (MCF7) | IC50 (HepG2) | IC50 (L02) | IC50 (HCT-116) | IC50 [1] | IC50 (K562) | Drug metabolism [2]
1 | C=C1C(=O)[C@]23[C@H](OC(=O)CCCC(=O)OCCOc4ccc(-c5cc(=S)ss5)cc4)[C@H]1CC[C@H]2[C@@]12CO[C@@]3(O)[C@@H](O)[C@@H]1C(C)(C)CCC2=O | > 50 µM | 27.5 µM | 7.65 µM | 42.2 µM | 34.9 µM | > 50 µM | 5.75 µM | 
2 | C=C1C(=O)[C@]23[C@H](OC(=O)CCCC(=O)OCCOc4ccc(-c5cc(=S)ss5)cc4)[C@H]1CC[C@H]2[C@@]12CO[C@@]3(O)[C@@H](O)[C@@H]1C(C)(C)CC[C@@H]2O | > 50 µM | 18.3 µM | 6.6 µM | 39.1 µM | 38.4 µM | > 50 µM | 4.89 µM | 
3 | C=C1C(=O)[C@]23[C@H](OC(=O)CCC(=O)OCCCOc4ccc(-c5cc(=S)ss5)cc4)[C@H]1CC[C@H]2[C@@]12CO[C@@]3(O)[C@@H](O)[C@@H]1C(C)(C)CC[C@@H]2O | 27.5 µM | 14.7 µM | 4.45 µM | 26.5 µM | 27.5 µM | > 50 µM | 2.17 µM | 15 µM
4 | Oc1ccc(-c2cc(=S)ss2)cc1 | > 50 µM | > 50 µM | > 50 µM | > 50 µM | > 50 µM | > 50 µM | > 50 µM | 
5 | C=C1C(=O)[C@]23[C@H](OC(=O)CCC(=O)OCCOc4ccc(-c5cc(=S)ss5)cc4)[C@H]1CC[C@H]2[C@@]12CO[C@@]3(O)[C@@H](O)[C@@H]1C(C)(C)CCC2=O | > 50 µM | 25.4 µM | 7.52 µM | 39.6 µM | > 50 µM | > 50 µM | 8.79 µM | 
6 | C=C1C(=O)[C@]23[C@H](OC(=O)CCCC(=O)OCCCOc4ccc(-c5cc(=S)ss5)cc4)[C@H]1CC[C@H]2[C@@]12CO[C@@]3(O)[C@@H](O)[C@@H]1C(C)(C)CCC2=O | 39.9 µM | 12.5 µM | 2.58 µM | 27.2 µM | 23.7 µM | > 50 µM | 3.59 µM | 
7 | C=C1C(=O)[C@]23[C@H](OC(=O)CCC(=O)OCCCOc4ccc(-c5cc(=S)ss5)cc4)[C@H]1CC[C@H]2[C@@]12CO[C@@]3(O)[C@@H](O)[C@@H]1C(C)(C)CCC2=O | > 50 µM | 19.5 µM | 5.01 µM | > 50 µM | 14 µM | > 50 µM | 7.12 µM | 
8 | C=C1C(=O)[C@]23[C@H](OC(=O)CCCC(=O)OCCOc4ccc(-c5cc(=S)ss5)cc4)[C@H]1CC[C@H]2[C@@]12CO[C@@]3(O)[C@@H](O)[C@@H]1C(C)(C)CC[C@@H]2OC(C)=O | 11.1 µM | > 50 µM | 4.78 µM | 26.8 µM | > 50 µM | > 50 µM | 1.86 µM | 
9 | C=C1C(=O)[C@]23[C@H](OC(=O)CCC(=O)OCCCCCCOc4ccc(-c5cc(=S)ss5)cc4)[C@H]1CC[C@H]2[C@@]12CO[C@@]3(O)[C@@H](O)[C@@H]1C(C)(C)CCC2=O | > 50 µM | 34.8 µM | 10.5 µM | > 50 µM | > 50 µM | > 50 µM | 5.87 µM | 
10 | C=C1C(=O)[C@]23[C@H](O)[C@H]1CC[C@H]2[C@@]12CO[C@@]3(O)[C@@H](O)[C@@H]1C(C)(C)CC[C@@H]2OC(C)=O [LASIOKAURIN] | 32.6 µM | 19.8 µM | 11.9 µM | 25.4 µM | 13.5 µM | > 50 µM | 5.21 µM | 
11 | C=C1C(=O)[C@]23[C@H](OC(=O)CCCC(=O)OCCCCCCOc4ccc(-c5cc(=S)ss5)cc4)[C@H]1CC[C@H]2[C@@]12CO[C@@]3(O)[C@@H](O)[C@@H]1C(C)(C)CCC2=O | > 50 µM | > 50 µM | 9.33 µM | > 50 µM | > 50 µM | > 50 µM | 8.89 µM | 
12 | C=C1C(=O)[C@]23[C@H](OC(=O)CCCC(=O)OCCCOc4ccc(-c5cc(=S)ss5)cc4)[C@H]1CC[C@H]2[C@@]12CO[C@@]3(O)[C@@H](O)[C@@H]1C(C)(C)CC[C@@H]2OC(C)=O | > 50 µM | 15.8 µM | 3.57 µM | 33.5 µM | 37.5 µM | > 50 µM | 5.93 µM | 
13 | C=C1C(=O)[C@]23[C@H](OC(=O)CCC(=O)OCCCOc4ccc(-c5cc(=S)ss5)cc4)[C@H]1CC[C@H]2[C@@]12CO[C@@]3(O)[C@@H](O)[C@@H]1C(C)(C)CC[C@@H]2OC(C)=O | 16.4 µM | 20.8 µM | 6.3 µM | 22.3 µM | 22.1 µM | > 50 µM | 2.44 µM | 
14 | C=C1C(=O)[C@]23[C@H](OC(=O)CCCC(=O)OCCCOc4ccc(-c5cc(=S)ss5)cc4)[C@H]1CC[C@H]2[C@@]12CO[C@@]3(O)[C@@H](O)[C@@H]1C(C)(C)CC[C@@H]2O | > 50 µM | 16.6 µM | 5.93 µM | 40.9 µM |  | > 50 µM | 4.19 µM | 15 µM
15 | C=C1C(=O)[C@]23[C@H](O)[C@H]1CC[C@H]2[C@@]12CO[C@@]3(O)[C@@H](O)[C@@H]1C(C)(C)CCC2=O | 25.5 µM | 15.4 µM | 10.5 µM | 28.5 µM | 10.7 µM | > 50 µM | 4.17 µM | 
16 | O=c1[nH]cc(F)c(=O)[nH]1 [FLUOROURACIL] | 12.6 µM | 26.7 µM | 32.6 µM | > 50 µM |  | > 50 µM |  | 
17 | C=C1C(=O)[C@]23[C@H](OC(=O)CCCC(=O)OCCCCCCO[C@H]4CCC(C)(C)[C@H]5[C@H](O)[C@]6(O)OC[C@@]45[C@@H]4CC[C@H]5C(=C)C(=O)[C@]46[C@@H]5OC(=O)CCCC(=O)OCCCCCCOc4ccc(-c5cc(=S)ss5)cc4)[C@H]1CC[C@H]2[C@@]12CO[C@@]3(O)[C@@H](O)[C@@H]1C(C)(C)CC[C@@H]2O | > 50 µM | > 50 µM | 10.1 µM | > 50 µM | > 50 µM | > 50 µM | 13.5 µM | 15 µM
18 | C=C1C(=O)[C@]23[C@H](OC(=O)CCCC(=O)OCCCCCCOc4ccc(-c5cc(=S)ss5)cc4)[C@H]1CC[C@H]2[C@@]12CO[C@@]3(O)[C@@H](O)[C@@H]1C(C)(C)CC[C@@H]2OC(C)=O | > 50 µM | > 50 µM | 15.6 µM | > 50 µM | > 50 µM | > 50 µM | 13.9 µM | 
19 | C=C1C(=O)[C@]23[C@H](OC(=O)CCC(=O)OCCOc4ccc(-c5cc(=S)ss5)cc4)[C@H]1CC[C@H]2[C@@]12CO[C@@]3(O)[C@@H](O)[C@@H]1C(C)(C)CC[C@@H]2O | > 50 µM | 17.9 µM | 5.36 µM | 34 µM | 42.6 µM | > 50 µM | 4.57 µM | 15 µM
20 | C=C1C(=O)[C@]23[C@H](OC(=O)CCC(=O)OCCOc4ccc(-c5cc(=S)ss5)cc4)[C@H]1CC[C@H]2[C@@]12CO[C@@]3(O)[C@@H](O)[C@@H]1C(C)(C)CC[C@@H]2OC(C)=O | > 50 µM | 24.7 µM | 5.89 µM | 29.9 µM | 36.9 µM | > 50 µM | 2.85 µM | 
